What all share (format): functional
In assay [1] the test system is PC-3. Put plainly: Cytotoxicity against human PC3 cells assessed as cell viability at 10 uM after 72 hrs by MTT assay relative to control. Conditions: PC-3, 72 h, read-out: Activity.
In assay [2] the test system is A549. Put plainly: Cytotoxicity against human A549 cells assessed as cell viability at 10 uM after 72 hrs by MTT assay relative to control. The following applies: A549, 72 h, read-out: Activity. In general terms: Formazan colour is commonly taken as a measure of viable cells.
Assay [3] has as its system A549. Put plainly: Cytotoxicity against human A549 cells assessed as cell viability at 1 uM after 72 hrs by MTT assay relative to control. The following applies: A549, 72 h, read-out: Activity.
A short description of assay [4]: Cytotoxicity against human PC3MLN4 cells assessed as cell viability at 1 uM after 72 hrs by MTT assay relative to control. The following applies: read-out: Activity.
Assay [5] is described as follows: Cytotoxicity against human PC3MLN4 cells assessed as cell viability at 10 uM after 72 hrs by MTT assay relative to control. Conditions: read-out: Activity.
In assay [6] the test system is PC-3. Put plainly: Cytotoxicity against human PC3 cells assessed as cell viability at 1 uM after 72 hrs by MTT assay relative to control. Conditions: PC-3, 72 h, read-out: Activity.

Molecules are shown by their SMILES.

Take `O=C(Nc1nc2cc(C(=O)c3ccccc3)ccc2[nH]1)OC1COC1`: the figures for the viability at 10 µM (with PC-3 [1]; in the assay with A549 [2]; in assay [5]) were 65.5%, 62% and 66.8%, respectively. For the same compound, the viability at 1 µM stood at 68% with A549 [3], 70.6% in assay [4] and 90.9% with PC-3 [6].
Regarding `CCCSc1ccc2[nH]c(NC(=O)OCC3(C)COC3)nc2c1`, the viability at 10 µM was determined as 79.2% in the assay with PC-3 [1], 87.6% in the assay on A549 [2] and 89.7% in assay [5]. Also, the results for the viability at 1 µM (with A549 [3]; in assay [4]; in the assay with PC-3 [6]) were 83.1%, 87.6% and 87.2%, respectively.
For `CCCSc1ccc2[nH]c(NC(=O)OC3COC3)nc2c1`, the viability at 10 µM is 84.5% with PC-3 [1], 79.2% with A549 [2] and 83.8% in assay [5]. The viability at 1 µM in the assay with A549 [3] turned out to be 73.2%; in assay [4], 88.3%; in the assay on PC-3 [6], 95.2%.
Consider `CN(C)CCOC(=O)Nc1nc2cc(C(=O)c3ccc(F)cc3)ccc2[nH]1`, for which the viability at 10 µM was 90.9% with PC-3 [1], 80.4% in the assay on A549 [2] and 97.2% in assay [5]. The results for the viability at 1 µM (in the assay with A549 [3]; in assay [4]; in the assay on PC-3 [6]) were 89.4%, 84.6% and 91.2%, respectively.
As for `CN(C)CCOC(=O)Nc1nc2cc(C(=O)c3ccccc3)ccc2[nH]1`, the viability at 10 µM in the assay on PC-3 [1] is 92.6%; in the assay with A549 [2], 89.6%; in assay [5], 98.8%. For the same compound, the viability at 1 µM in the assay with A549 [3] is 94.4%; in assay [4] it was 101%; in the assay on PC-3 [6], 97.3%.
On to `CCCSc1ccc2[nH]c(NC(=O)OCCN(C)C)nc2c1`, for which the viability at 10 µM in the assay on PC-3 [1] was 37.9%; with A549 [2], 51.8%; in assay [5], 42.8%. Also, the values for the viability at 1 µM (in the assay with A549 [3]; in assay [4]; in the assay with PC-3 [6]) were 75.5%, 92.7% and 82.5%, respectively.
For `COC(=O)Nc1nc2cc(C(=O)c3ccccc3N(C)C3COC3)ccc2[nH]1`, the viability at 10 µM in the assay with PC-3 [1] is 54.8%; with A549 [2] it was 46.8%; in assay [5], 38.4%. The viability at 1 µM came to 99% with A549 [3], 100% in assay [4] and 101% with PC-3 [6].
Consider `COC(=O)Nc1nc2cc(Oc3cccc(N4CCN(C)CC4)c3)ccc2[nH]1`, for which the viability at 10 µM with PC-3 [1] amounted to 32.2%; with A549 [2], 47.5%; in assay [5] it was 33.4%. For the same compound, the viability at 1 µM worked out at 77% with A549 [3], 86.3% in assay [4] and 73.1% in the assay with PC-3 [6].
For the compound `O=C(Nc1nc2cc(Sc3ccccc3)ccc2[nH]1)OC1COC1`, the viability at 10 µM came to 87.8% in the assay on PC-3 [1], 74.8% with A549 [2] and 79.1% in assay [5]. The viability at 1 µM in the assay with A549 [3] came to 75%; in assay [4], 80.2%; in the assay with PC-3 [6], 107%.
For `CN(C)CCCOC(=O)Nc1nc2cc(C(=O)c3ccc(F)cc3)ccc2[nH]1`, the viability at 10 µM with PC-3 [1] turned out to be 86.5%; with A549 [2], 88.1%; in assay [5], 91%. Further, the viability at 1 µM in the assay with A549 [3] came to 85.4%; in assay [4], 87.3%; with PC-3 [6] it was 105%.
In the case of `CCCSc1ccc2[nH]c(NC(=O)OCCCN(C)C)nc2c1`, the viability at 10 µM in the assay with PC-3 [1] was 78.2%; with A549 [2] it was 89.9%; in assay [5], 88.6%. Moreover, the viability at 1 µM in the assay on A549 [3] was determined as 83.8%; in assay [4], 86.7%; in the assay on PC-3 [6], 95.5%.
On to `COC(=O)Nc1nc2cc(Oc3cccc(N4CCN(C)CC4)n3)ccc2[nH]1`, for which the viability at 10 µM in the assay with PC-3 [1] is 52.1%; in the assay with A549 [2], 72.6%; in assay [5], 74%. The viability at 1 µM in the assay on A549 [3] stood at 87.8%; in assay [4], 83%; in the assay with PC-3 [6], 98.1%.

Values taken from ChEMBL document CHEMBL4251617, “Synthesis and anticancer activity of novel water soluble benzimidazole carbamates” (Eur J Med Chem, 2018).
